Reference: US9995734B2, “Human T cell line assay for evaluating the immunologic identity of glatiramer acetate preparations” (Mylan Inc., priority 2013, dated 2018)
Where “and” joins values, the source holds several entries; their conditions need not be identical. Equal values may be shown once.

Legend:
[1] = test system: Donor 3 COP T-Cell Lines; assay: ATP proliferation assay (CellTiter Glo), Donor 3 COP T-cell lines, incl. reactivity to non-canonical GA peptides; assay type: cell-based, human; conditions: for Non-Canonical Peptide Non-Reactivity: proliferation <2 times no antigen control
[2] = test system: Donor 3 GMA T-Cell Lines; assay: ATP proliferation assay (CellTiter Glo), Donor 3 GMA T-cell lines, incl. reactivity to non-canonical GA peptides; assay type: cell-based, human; conditions: for proliferation response to non-canonical GA peptides: 0, 1, 3, 10, 30 μg/mL; for Non-Canonical Peptide Non-Reactivity: proliferation <2 times no antigen control; for Non-Canonical Peptide Reactivity: at least one proliferation value >=2 times no antigen control

poly (Glu-Ala-Tyr; 6:3:1) [GAT 631]
Non-Canonical Peptide Non-Reactivity ([1]; 165-B6C): GAT 631
Non-Canonical Peptide Non-Reactivity ([1]; 165-C4C): GAT 631
Non-Canonical Peptide Non-Reactivity ([1]; 165-C7C): GAT 631
proliferation response to non-canonical peptides ([1]; 165-E3C, separate experiment): did not react
Non-Canonical Peptide Non-Reactivity ([1]; 165-F3C): GAT 631
Non-Canonical Peptide Non-Reactivity ([1]; 165-F6C): GAT 631
Non-Canonical Peptide Non-Reactivity ([1]; 165-U3C (so in the source)): GAT 631
Nonreactive T-Cell Line ([1]; Donor 3 COP lines, stimulation with the non-canonical GA peptide): 165-B6C (Donor 3) and 165-C4C (Donor 3) and 165-C7C (Donor 3) and 165-E3C (Donor 3) and 165-F3C (Donor 3) and 165-F6C (Donor 3)
Proliferation (luminescent ATP assay), Mean ([1]; T-cell line 165-C4C, 1 μg/mL antigen, Day 66 of culture, 0 μg/mL 1881): 2489
Proliferation (luminescent ATP assay), Mean ([1]; T-cell line 165-C4C, 3 μg/mL antigen, Day 66 of culture, 0 μg/mL 1881): 2687
Proliferation (luminescent ATP assay), Mean ([1]; T-cell line 165-C4C, 10 μg/mL antigen, Day 66 of culture, 0 μg/mL 1881): 2682
Proliferation (luminescent ATP assay), Mean ([1]; T-cell line 165-C7C, 1.25 μg/mL antigen, autologous B-LCL): 232 RLU
Proliferation (luminescent ATP assay), Mean ([1]; T-cell line 165-C7C, 2.5 μg/mL antigen, autologous B-LCL): 204 RLU
Proliferation (luminescent ATP assay), Mean ([1]; T-cell line 165-C7C, 5 μg/mL antigen, autologous B-LCL): 200 RLU
Proliferation (luminescent ATP assay), Mean ([1]; T-cell line 165-C7C, 10 μg/mL antigen, autologous B-LCL): 184 RLU
Proliferation (luminescent ATP assay), Mean ([1]; T-cell line 165-F3C, 1 μg/mL antigen, Day 77 of culture, 0 μg/mL 1563): 2389
Proliferation (luminescent ATP assay), Mean ([1]; T-cell line 165-F3C, 3 μg/mL antigen, Day 77 of culture, 0 μg/mL 1563): 2249
Proliferation (luminescent ATP assay), Mean ([1]; T-cell line 165-F3C, 10 μg/mL antigen, Day 77 of culture, 0 μg/mL 1563): 2391
Proliferation (luminescent ATP assay), Mean ([1]; T-cell line 165-F6C, 1.25 μg/mL antigen, Day 76 of culture, No Antigen value 517): 516
Proliferation (luminescent ATP assay), Mean ([1]; T-cell line 165-F6C, 2.5 μg/mL antigen, Day 76 of culture, No Antigen value 517): 479
Proliferation (luminescent ATP assay), Mean ([1]; T-cell line 165-F6C, 5 μg/mL antigen, Day 76 of culture, No Antigen value 517): 463
Proliferation (luminescent ATP assay), Mean ([1]; T-cell line 165-F6C, 10 μg/mL antigen, Day 76 of culture, No Antigen value 517): 449
proliferation response to non-canonical GA peptides ([2]; 165-B5G and 165-E7G, Day 81): responded
Non-Canonical Peptide Non-Reactivity ([2]; 165-B5G): GAT 631
Non-Canonical Peptide Non-Reactivity ([2]; 165-C5G): GAT 631
Non-Canonical Peptide Reactivity ([2]; 165-E7G): GAT 631
Non-Canonical Peptide Non-Reactivity ([2]; 165-E9G): GAT 631
Non-Canonical Peptide Non-Reactivity ([2]; 165-F5G): GAT 631
Non-Canonical Peptide Non-Reactivity ([2]; 165-F10G): GAT 631
proliferation response to non-canonical GA peptides ([2]; 165-H11G, Day 50): responded
Non-Canonical Peptide Reactivity ([2]; 165-H11G): GAT 631
Reactive T-Cell Line ([2]; Donor 3 GMA lines, at least a 50% increase in proliferation relative to a control after stimulation with the non-canonical GA peptide): 165-H11G (Donor 3)
Nonreactive T-Cell Line ([2]; Donor 3 GMA lines, stimulation with the non-canonical GA peptide): 165-B5G (Donor 3) and 165-C5G (Donor 3) and 165-C8G (Donor 3) and 165-E7G (Donor 3) and 165-E9G (Donor 3) and 165-F5G (Donor 3) and 165-F10G (Donor 3)
Proliferation (luminescent ATP assay), Mean ([2]; T-cell line 165-05G, 1 μg/mL antigen, Day 50 of culturing, No Antigen Value 2149): 2004 RLU
Proliferation (luminescent ATP assay), Mean ([2]; T-cell line 165-05G, 3 μg/mL antigen, Day 50 of culturing, No Antigen Value 2149): 2207 RLU
Proliferation (luminescent ATP assay), Mean ([2]; T-cell line 165-05G, 10 μg/mL antigen, Day 50 of culturing, No Antigen Value 2149): 1928 RLU
Proliferation (luminescent ATP assay), Mean ([2]; T-cell line 165-05G, 30 μg/mL antigen, Day 50 of culturing, No Antigen Value 2149): 1829 RLU
Proliferation (luminescent ATP assay), Mean ([2]; T-cell line 165-B5G, 1 μg/mL antigen, Day 81 of culturing, No Antigen Value 2432): 4666 RLU
Proliferation (luminescent ATP assay), Mean ([2]; T-cell line 165-B5G, 1.25 μg/mL antigen, Day 55 of culturing, No Antigen Value 846): 1133 RLU
Proliferation (luminescent ATP assay), Mean ([2]; T-cell line 165-B5G, 2.5 μg/mL antigen, Day 55 of culturing, No Antigen Value 846): 1288 RLU
Proliferation (luminescent ATP assay), Mean ([2]; T-cell line 165-B5G, 3 μg/mL antigen, Day 81 of culturing, No Antigen Value 2432): 5536 RLU
Proliferation (luminescent ATP assay), Mean ([2]; T-cell line 165-B5G, 5 μg/mL antigen, Day 55 of culturing, No Antigen Value 846): 1511 RLU
